Activity calls are given as the source filed them. No cut-off for these calls is given here. Residues, ends and D or L forms follow the SMILES beside them. *: point of attachment. Cbz = O=C(OCc1ccccc1)*; CH2F = FC*
Columns and labels:
[1] = target: T1, Caspase-1 (Homo sapiens, UniProt P29466); test: Inhibition of recombinant human caspase-1 expressed in Escherichia coli BL21 cells using […] as substrate incubated for 30 mins
T1 sequence (P29466 whole entry): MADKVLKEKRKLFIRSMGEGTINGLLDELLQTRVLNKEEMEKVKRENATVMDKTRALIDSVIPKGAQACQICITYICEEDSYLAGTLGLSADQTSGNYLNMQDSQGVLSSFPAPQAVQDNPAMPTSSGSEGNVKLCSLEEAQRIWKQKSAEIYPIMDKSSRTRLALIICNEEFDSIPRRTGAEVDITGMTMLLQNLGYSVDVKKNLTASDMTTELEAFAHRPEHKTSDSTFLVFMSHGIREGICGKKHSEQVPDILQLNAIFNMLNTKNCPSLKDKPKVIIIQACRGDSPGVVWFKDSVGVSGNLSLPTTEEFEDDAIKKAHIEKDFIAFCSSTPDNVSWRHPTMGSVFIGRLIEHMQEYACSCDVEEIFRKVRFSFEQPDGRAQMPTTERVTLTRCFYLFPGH

[2] = target: T2, Caspase-1 (Homo sapiens) (UniProt P29466); test: Inhibition of recombinant human caspase-1 expressed in Escherichia coli BL21 cells assessed as remaining activity at 100 uM using […] as substrate incubated for 30 mins relative to control
T2 sequence (whole entry): T1 sequence (P29466 whole entry)

[3] = target: T2, Caspase-1 (Homo sapiens); test: Inhibition of recombinant human caspase-1 expressed in Escherichia coli BL21 cells assessed as remaining activity at 10 uM using […] as substrate incubated for 30 mins relative to control
[4] = test system: J774.A1; test: Inhibition of IL-1beta release in mouse J774.A1 cells at 20 uM pretreated with LPS for 3 hrs followed by compound addition for 30 mins and nigericin stimulation for 45 mins; format: functional, cell-based; conditions: time 75.0 min
[5] = test system: J774.A1; test: Binding affinity to pro-caspase 1 in mouse J774.A1 cell lysates at 1 to 2 uM incubated for 2 hrs by pull-down assay; format: subcellular; conditions: dose 1-2 µM
[6] = target: NFU1 iron-sulfur cluster scaffold homolog, mitochondrial (Mus musculus) (UniProt Q9QZ23); test: Binding affinity to Nfu1 in mouse J774.A1 cells lysate by mass-spectrophotometric assay; format: subcellular
Sequence of NFU1 iron-sulfur cluster scaffold homolog, mitochondrial (Mus musculus) (Q9QZ23 whole entry): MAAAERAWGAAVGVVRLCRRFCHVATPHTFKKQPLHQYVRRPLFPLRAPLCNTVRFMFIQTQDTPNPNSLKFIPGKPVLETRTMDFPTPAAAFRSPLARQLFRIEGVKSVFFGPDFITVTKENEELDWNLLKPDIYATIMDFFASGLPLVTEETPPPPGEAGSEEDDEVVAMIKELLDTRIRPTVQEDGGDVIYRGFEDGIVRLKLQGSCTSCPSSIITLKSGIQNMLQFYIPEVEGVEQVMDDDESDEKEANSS

[7] = target: Thioredoxin (Mus musculus) (UniProt P10639); test: Binding affinity to Txn in mouse J774.A1 cells lysate by mass-spectrophotometric assay; format: subcellular
Sequence of Thioredoxin (Mus musculus) (P10639 whole entry): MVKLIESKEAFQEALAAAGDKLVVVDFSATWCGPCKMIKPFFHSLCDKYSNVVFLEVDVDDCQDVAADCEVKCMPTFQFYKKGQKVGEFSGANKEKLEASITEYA

[8] = test system: J774.A1; test: Binding affinity to pro-caspase 1 in mouse J774.A1 cell lysates at 1 to 2 uM incubated for 2 hrs in presence of 1'-benzyl 6-(tert-butyl) (1R,4R,6R)-4-isothiocyanato-5'-methoxy-2'-oxospiro[cyclohexane-1,3'-indolin]-2-ene-1',6-dicarboxylate by pull-down assay; format: subcellular; conditions: dose 1-2 µM
[9] = test system: J774.A1; test: Binding affinity to pro-caspase 1 in mouse J774.A1 cells at 50 uM pretreated with LPS for 3 hrs and nigericin stimulation for 45 mins followed by compound addition by pull-down assay; format: cell-based
[10] = test system: J774.A1; test: Binding affinity to pro-caspase 1 in mouse J774.A1 cells by Western blotting analysis; format: cell-based
[11] = target: T2, Caspase-1 (Homo sapiens); test: Inhibition of caspase-1 activity (unknown origin); conditions: dose 50-300 µM
[12] = target: T3, Caspase-7 (Mus musculus) (UniProt P97864); test: Inhibition of cisplatin induced caspase-7 activation in mouse J774.A1 cells at 1 uM preincubated for 30 mins followed by cisplatin addition and incubated overnight; format: cell-based
T3 sequence (whole entry): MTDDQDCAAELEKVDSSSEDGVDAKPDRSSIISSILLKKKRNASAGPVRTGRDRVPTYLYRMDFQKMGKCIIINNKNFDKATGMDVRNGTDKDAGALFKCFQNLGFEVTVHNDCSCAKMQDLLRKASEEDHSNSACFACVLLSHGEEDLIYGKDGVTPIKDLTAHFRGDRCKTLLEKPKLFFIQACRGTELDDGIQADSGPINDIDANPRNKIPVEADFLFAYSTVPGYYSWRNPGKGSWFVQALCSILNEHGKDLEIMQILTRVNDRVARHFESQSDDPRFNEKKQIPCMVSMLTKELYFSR

[13] = target: T4, Caspase-3 (Mus musculus) (UniProt P70677); test: Inhibition of cisplatin induced caspase-3 activation in mouse J774.A1 cells at 1 uM preincubated for 30 mins followed by cisplatin addition and incubated overnight; format: cell-based
T4 sequence (whole entry): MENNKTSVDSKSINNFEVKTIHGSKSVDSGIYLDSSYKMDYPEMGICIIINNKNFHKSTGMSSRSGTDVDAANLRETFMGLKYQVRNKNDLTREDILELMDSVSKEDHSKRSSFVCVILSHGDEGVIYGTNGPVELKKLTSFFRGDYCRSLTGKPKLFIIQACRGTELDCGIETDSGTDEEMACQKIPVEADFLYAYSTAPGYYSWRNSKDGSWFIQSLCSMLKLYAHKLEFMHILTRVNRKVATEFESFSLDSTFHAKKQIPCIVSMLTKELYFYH

[14] = target: T2, Caspase-1 (Homo sapiens); test: Inhibition of recombinant human caspase-1 expressed in Escherichia coli BL21 cells at 5 to 50 uM using […] as substrate incubated for 30 mins; conditions: dose 5-50 µM
[15] = target: NACHT, LRR and PYD domains-containing protein 3 (Mus musculus) (UniProt Q8R4B8); test: Inhibition of NLRP3 inflammasome activation activation in LPS/nigericin stimulated mouse J774.A1 cells assessed as reduction in IL-1beta production pretreated with LPS for 3 hrs prior to compound addition for 30 mins followed by nigericin addition and measured after 45 mins by ELISA; format: cell-based; conditions: dose 0.001-2000 nM, time 75.0 min
Sequence of NACHT, LRR and PYD domains-containing protein 3 (Mus musculus) (Q8R4B8 whole entry, the tested form may be a part): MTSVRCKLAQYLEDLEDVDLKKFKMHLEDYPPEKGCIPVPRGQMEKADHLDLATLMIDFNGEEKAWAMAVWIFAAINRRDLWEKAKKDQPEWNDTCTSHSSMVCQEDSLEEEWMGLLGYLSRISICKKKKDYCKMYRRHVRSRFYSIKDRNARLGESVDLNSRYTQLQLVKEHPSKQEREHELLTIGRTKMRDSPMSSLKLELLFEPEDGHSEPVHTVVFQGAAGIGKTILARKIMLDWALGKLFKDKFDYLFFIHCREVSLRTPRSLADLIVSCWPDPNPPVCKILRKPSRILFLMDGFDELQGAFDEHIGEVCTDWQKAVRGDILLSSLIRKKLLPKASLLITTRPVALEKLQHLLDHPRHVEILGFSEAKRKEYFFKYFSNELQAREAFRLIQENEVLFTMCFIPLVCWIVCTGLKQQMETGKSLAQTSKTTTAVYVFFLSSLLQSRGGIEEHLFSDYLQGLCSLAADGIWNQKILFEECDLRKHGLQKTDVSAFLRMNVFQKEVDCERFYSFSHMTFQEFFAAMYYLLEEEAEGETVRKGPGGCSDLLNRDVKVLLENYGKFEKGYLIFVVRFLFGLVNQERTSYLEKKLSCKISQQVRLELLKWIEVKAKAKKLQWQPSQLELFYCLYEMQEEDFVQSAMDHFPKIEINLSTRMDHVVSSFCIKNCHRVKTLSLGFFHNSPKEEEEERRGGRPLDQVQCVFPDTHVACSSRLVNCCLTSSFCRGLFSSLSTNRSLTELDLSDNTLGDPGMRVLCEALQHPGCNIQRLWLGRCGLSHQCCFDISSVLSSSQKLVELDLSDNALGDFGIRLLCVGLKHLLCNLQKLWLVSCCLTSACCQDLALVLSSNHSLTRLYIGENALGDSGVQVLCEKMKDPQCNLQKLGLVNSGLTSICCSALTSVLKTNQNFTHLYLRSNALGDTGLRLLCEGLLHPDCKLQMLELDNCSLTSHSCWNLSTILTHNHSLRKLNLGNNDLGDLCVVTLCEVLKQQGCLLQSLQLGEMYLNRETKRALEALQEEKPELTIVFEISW

Row | Compound | IC50 [1] [µM] | Activity [2] [%] | Activity [3] [%] | further results
1 | CC1=C[C@@]2(C(=O)N(C(=O)OCc3ccccc3)c3ccccc32)[C@H](C(=O)OC(C)(C)C)C[C@H]1N=C=S | > 100 | 84 | 93 | 
2 | CC(C)(C)OC(=O)[C@@H]1C[C@@H](N=C=S)C=C[C@@]12C(=O)Nc1ccc(NC(=O)CCCC[C@@H]3SC[C@@H]4NC(=O)N[C@@H]43)cc12 |  |  |  | inhibition [4]: Active; Activity [5]: Active; Activity [6]: Active; Activity [7]: Active; Activity [8]: inactive; Activity [9]: Active; Activity [10]: Active; inhibition [11]: Dose-Dependent Effect
3 | CC(C)(C)OC(=O)[C@@H]1C[C@@H](N=C=S)C=C[C@@]12C(=O)N(C(=O)OCc1ccccc1)c1ccccc12 | 37.6 | 15 | 76 | 
4 | COC(=O)C[C@H](NC(=O)[C@H](C)NC(=O)[C@@H](NC(=O)OCc1ccccc1)C(C)C)C(=O)CF (Cbz-Val-Ala-Asp(OMe)-CH2F) |  |  |  | inhibition [12]: Active; inhibition [13]: Active
5 | CC(C)(C)OC(=O)[C@@H]1C[C@@H](N=C=S)C=C[C@@]12C(=O)N(C(=O)OCc1ccccc1)c1cc(Br)ccc12 | 15.4 | 20 | 71 | 
6 | CC(C)(C)OC(=O)[C@@H]1C[C@@H](N=C=S)C=C[C@@]12C(=O)N(C(=O)OCc1ccccc1)c1ccc(Br)cc12 | 89.8 | 31 | 92 | 
7 | CC(C)(C)OC(=O)[C@@H]1CC=C[C@@H](SC#N)[C@@]12C(=O)Nc1ccc(NC(=O)CCCC[C@@H]3SC[C@@H]4NC(=O)N[C@@H]43)cc12 |  |  |  | inhibition [11]: inactive
8 | CC(C)(C)OC(=O)[C@@H]1C[C@@H](N=C=S)C=C[C@@]12C(=O)N(C(=O)OCC1c3ccccc3-c3ccccc31)c1ccccc12 | 75.7 | 24 | 90 | 
9 | O=C(Oc1ccccc1)[C@@H]1C[C@@H](N=C=S)C=C[C@@]12C(=O)N(C(=O)OCc1ccccc1)c1ccccc12 | > 100 | 56 | 101 | 
10 | COC(=O)N1C(=O)[C@@]2(C=C[C@H](N=C=S)C[C@H]2C(=O)OC(C)(C)C)c2ccccc21 | 58.2 | 34 | 68 | 
11 | CC(C)OC(=O)[C@@H]1C[C@@H](N=C=S)C=C[C@@]12C(=O)N(C(=O)OCc1ccccc1)c1ccccc12 | 72.9 | 19 | 104 | 
12 | CC(C)(C)OC(=O)[C@@H]1C[C@@H](N=C=S)C=C[C@@]12C(=O)N(C(=O)OCc1ccccc1)c1c(F)cccc12 | 79.1 | 13 | 85 | 
13 | O=C(OCc1ccccc1)[C@@H]1C[C@@H](N=C=S)C=C[C@@]12C(=O)N(C(=O)OCc1ccccc1)c1ccccc12 | 85.5 | 42 | 104 | 
14 | CC1=C[C@@]2(C(=O)N(C(=O)OCc3ccccc3)c3ccccc32)[C@H](C(=O)OC(C)(C)C)C[C@@]1(C)N=C=S | > 100 | 91 | 103 | 
15 | CC(C)(C)OC(=O)[C@@H]1C[C@@H](NC(=S)Nc2ccccc2)C=C[C@@]12C(=O)N(C(=O)OCc1ccccc1)c1ccccc12 | > 100 | 84 | 112 | 
16 | COc1ccc2c(c1)[C@]1(C=C[C@@H](N=C=S)C[C@H]1C(=O)OC(C)(C)C)C(=O)N2C(=O)OCc1ccccc1 |  |  |  | inhibition (active/not active) [14]: Active

Row | Compound | IC50 [1] [µM] | Activity [2] [%] | Activity [3] [%] | further results
17 | CC(C)(C)OC(=O)[C@@H]1C[C@@H](N=C=S)C=C[C@@]12C(=O)N(C(=O)OCc1ccccc1)c1ccc(F)cc12 | 80.7 | 17 | 81 | 
18 | S=C=NCCc1ccccc1 |  |  |  | inhibition [15]: Dose-Dependent Effect; inhibition (active/not active) [14]: inactive
19 | CC(C)(C)OC(=O)[C@@H]1C[C@@H](NC(=S)NN)C=C[C@@]12C(=O)N(C(=O)OCc1ccccc1)c1ccccc12 | > 100 | 84 | 107 | 
20 | O=C(c1ccccc1)[C@@H]1C[C@@H](N=C=S)C=C[C@@]12C(=O)N(C(=O)OCc1ccccc1)c1ccccc12 | 26.2 | 15 | 56 | 
21 | CC(C)(C)OC(=O)[C@@H]1C[C@@H](N=C=S)C=C[C@@]12C(=O)N(C(=O)OCc1ccccc1)c1ccc(I)cc12 | > 100 | 61 | 88 | 
22 | S=C=NCc1ccccc1 |  |  |  | inhibition [15]: Dose-Dependent Effect; inhibition (active/not active) [14]: Active
23 | C[S+]([O-])CCCCN=C=S (stereo unspecified) |  |  |  | inhibition [15]: Dose-Dependent Effect; inhibition (active/not active) [14]: inactive
24 | Cc1ccc2c(c1)[C@]1(C=C[C@H](N=C=S)C[C@H]1C(=O)OC(C)(C)C)C(=O)N2C(=O)OCc1ccccc1 | 28.4 | 15 | 68 | 
25 | CC(C)(C)OC(=O)[C@@H]1C[C@@H](N=C=S)C=C[C@@]12C(=O)N(C(=O)OCc1ccccc1)c1ccc(Cl)cc12 | 84.8 | 24 | 77 | 
26 | COc1ccc2c(c1)[C@]1(C=C[C@H](N=C=S)C[C@H]1C(=O)OC(C)(C)C)C(=O)N2 | 40.5 | 10 | 75 | 
27 | CCC1=C[C@@]2(C(=O)N(C(=O)OCc3ccccc3)c3ccccc32)[C@H](C(=O)OC(C)(C)C)C[C@@]1(CC)N=C=S | > 100 | 90 | 108 | 
28 | CC(C)(C)OC(=O)[C@@H]1C[C@@H](N=C=S)C=C[C@@]12C(=O)N(C(=O)OCc1ccccc1)c1cc(F)c(F)cc12 | 43.6 | 21 | 73 | 
29 | COc1ccc2c(c1)[C@@]1(C=C[C@@H](N=C=S)C[C@@H]1C(=O)OC(C)(C)C)C(=O)N2C(=O)OCc1ccccc1 |  |  |  | inhibition (active/not active) [14]: Active
30 | COc1ccc2c(c1)[C@@]1(C(=O)N2C(=O)OCc2ccccc2)[C@@H](SC#N)C=CC[C@H]1C(=O)OC(C)(C)C |  |  |  | inhibition (active/not active) [14]: inactive
31 | COC(=O)[C@@H]1C[C@@H](N=C=S)C=C[C@@]12C(=O)N(C(=O)OCc1ccccc1)c1ccccc12 | 29.4 | 9 | 78 | 

Source: ChEMBL document CHEMBL5584334, “Discovery of a Covalent Inhibitor of Pro-Caspase-1 Zymogen Blocking NLRP3 Inflammasome Activation and Pyroptosis” (J Med Chem, 2024)
